In article PMC12153356, “An antisense oligomer conjugate with unpredicted bactericidal activity against Fusobacterium nucleatum” (mBio, 2025):
Square brackets hold non-standard residues; d marks the D form. Peptide text beside a SMILES is read from it. * marks the point of attachment. 5TAMRA = CN(C)c1ccc2c(c1)Oc1cc(N(C)C)ccc1C21OC(=O)c2cc(C(=O)*)ccc21; Ahx = NCCCCCC(=O)O; βAla = NCCC(=O)O

Test system: F. nucleatum subsp. nucleatum ATCC 23726 (FNN23)
Assay: CPP-TAMRA uptake by confocal laser scanning microscopy (CLSM)
Type: cell-based, Fusobacterium nucleatum subsp. nucleatum ATCC 23726
Details: 5 µM CPP-TAMRA, FNN23 10^8 CFU/mL in MHB, 37°C, 10, 30 and 60 min, 100 cells from four images, cytoplasmic signal
Description: To investigate the efficiency of different cell-penetrating peptides, we excluded a flow cytometry approach to quantify penetration efficiency because upon cell fixation, CPPs were reported to bind to cell membranes and remain attached even after multiple washes, which would result in a false-positive penetration signal in flow cytometry ([118]). Thus, we opted for a microscopy-based investigation with lower throughput but discrimination potential between membrane-associated and cytosolic signals. CPPs were coupled to the fluorophore 5(6)-carboxytetramethylrhodamine (TAMRA) by Peps4LS GmbH, and 200 µM stocks were prepared in house. […] The emission was detected at 685–795 nm for FM 4–64 and 570–620 nm for TAMRA. CLSM images were analyzed using ImageJ. To quantify CPP uptake, 100 cells were chosen out of four images per condition using the bright field image and analyzed for cytosolic TAMRA signal by excluding TAMRA-negative cells and TAMRA signal co-localized with the FM 4–64 signal.

CN(C)c1ccc2c(c1)Oc1cc(N(C)C)ccc1C21OC(=O)c2cc(C(=O)N[C@@H](CCCNC(=N)N)C(=O)NCCCCCC(=O)N[C@@H](CCCNC(=N)N)C(=O)N[C@@H](CCCNC(=N)N)C(=O)NCCCCCC(=O)N[C@@H](CCCNC(=N)N)C(=O)N[C@@H](CCCNC(=N)N)C(=O)NCCCCCC(=O)N[C@@H](CCCNC(=N)N)C(=O)N[C@@H](CCCNC(=N)N)C(=O)NCCCCCC(=O)N[C@@H](CCCNC(=N)N)C(=O)NCCCCCC(=O)NCCC(=O)O)ccc21 [(RXR)4XB-TAMRA] (5TAMRA-R[Ahx]RR[Ahx]RR[Ahx]RR[Ahx]R[Ahx][βAla]-OH)
TAMRA-positive cells (uptake efficiency): 100%
